PubChem BioAssay AID1963970 (Molecular Pharmacology Branch, DTP, NCI, 2024)

Test system: 931267-113-T-J1-PDC multicell spheroid viability
Assay: Anticancer human tumor 931267-113-T-J1-PDC patient-derived colon adenocarcinoma cell line growth inhibition [PI3K]
Details: for IC50: curve of first compound; for viability, T/C: stronger effect = lower value
Outline: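 Stroma-containing spheroids: tumor line, pooled-donor HUVEC, hMSC. Treatments: targeted agents with PI3K inhibitors. Dosing: clinically relevant, half-log spacing, 10 microM ceiling without known Cmax. Read-out: cell viability.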

[1] = second compound 0.0316 µM, first compound 0.0316 µM
[2] = second compound 0.0316 µM, first compound 0.1 µM
[3] = second compound 0.0316 µM, first compound 0.316 µM
[4] = second compound 0.0316 µM, first compound 1 µM
[5] = second compound 0.1 µM, first compound 0.0316 µM
[6] = second compound 0.1 µM, first compound 0.1 µM
[7] = second compound 0.1 µM, first compound 0.316 µM
[8] = second compound 0.1 µM, first compound 1 µM
[9] = second compound 0.316 µM, first compound 0.0316 µM
[10] = second compound 0.316 µM, first compound 0.1 µM
[11] = second compound 0.316 µM, first compound 0.316 µM
[12] = second compound 0.316 µM, first compound 1 µM
[13] = second compound 1 µM, first compound 0.0316 µM
[14] = second compound 1 µM, first compound 0.1 µM
[15] = second compound 1 µM, first compound 0.316 µM
[16] = second compound 1 µM, first compound 1 µM
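Further: viability read 7 days after compound addition.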

Question: For CCN1CCN(Cc2ccc(Nc3ncc(F)c(-c4cc(F)c5nc(C)n(C(C)C)c5c4)n3)nc2)CC1 + COc1c(OCCCN2CCOCC2)ccc2c3n(c(=NC(=O)c4cnc(N)nc4)nc12)CCN3, which IC50 (second compound 0.00316 µM) is on record?
Answer: > 1 µM

Question: What about the IC50 (second compound 0.01 µM) of the same molecule?
Answer: > 1 µM

Question: What about the IC50 (second compound 0.0316 µM) of the same molecule?
Answer: > 1 µM

Question: And the IC50 (second compound 0.1 µM)?
Answer: 0.0888 µM

Question: What about the IC50 (second compound 0.316 µM) of the same molecule?
Answer: < 0.00316 µM

Question: And the IC50 (second compound 1 µM)?
Answer: < 0.00316 µM

Question: What about the viability, T/C (second compound 0.00316 µM, first compound 0.00316 µM) of the same molecule?
Answer: 91.3%

Question: What about the viability, T/C (second compound 0.00316 µM, first compound 0.01 µM) of the same molecule?
Answer: 105%

Question: What about the viability, T/C (second compound 0.00316 µM, first compound 0.0316 µM) of the same molecule?
Answer: 97.3%

Question: What about the viability, T/C (second compound 0.00316 µM, first compound 0.1 µM) of the same molecule?
Answer: 98.7%

Question: What about the viability, T/C (second compound 0.00316 µM, first compound 0.316 µM) of the same molecule?
Answer: 94.2%

Question: What about the viability, T/C (second compound 0.00316 µM, first compound 1 µM) of the same molecule?
Answer: 81.7%

Question: What about the viability, T/C (second compound 0.01 µM, first compound 0.00316 µM) of the same molecule?
Answer: 103%

Question: What about the viability, T/C (second compound 0.01 µM, first compound 0.01 µM) of the same molecule?
Answer: 89.4%

Question: What about the viability, T/C (second compound 0.01 µM, first compound 0.0316 µM) of the same molecule?
Answer: 87.6%

Question: And the viability, T/C (second compound 0.01 µM, first compound 0.1 µM)?
Answer: 90.2%

Question: What about the viability, T/C (second compound 0.01 µM, first compound 0.316 µM) of the same molecule?
Answer: 89%

Question: And the viability, T/C (second compound 0.01 µM, first compound 1 µM)?
Answer: 67%

Question: What about the viability, T/C (second compound 0.0316 µM, first compound 0.00316 µM) of the same molecule?
Answer: 84.3%

Question: And the viability, T/C (second compound 0.0316 µM, first compound 0.01 µM)?
Answer: 79.1%

Question: And the viability, T/C [1]?
Answer: 76.8%

Question: And the viability, T/C [2]?
Answer: 70.8%

Question: And the viability, T/C [3]?
Answer: 67.2%

Question: And the viability, T/C [4]?
Answer: 55.5%

Question: And the viability, T/C (second compound 0.1 µM, first compound 0.00316 µM)?
Answer: 66.3%

Question: What about the viability, T/C (second compound 0.1 µM, first compound 0.01 µM) of the same molecule?
Answer: 65.6%

Question: What about the viability, T/C [5] of the same molecule?
Answer: 57.2%

Question: And the viability, T/C [6]?
Answer: 47.5%

Question: And the viability, T/C [7]?
Answer: 49.2%

Question: And the viability, T/C [8]?
Answer: 50.8%

Question: What about the viability, T/C (second compound 0.316 µM, first compound 0.00316 µM) of the same molecule?
Answer: 53.5%

Question: What about the viability, T/C (second compound 0.316 µM, first compound 0.01 µM) of the same molecule?
Answer: 44.7%

Question: And the viability, T/C [9]?
Answer: 39.6%

Question: And the viability, T/C [10]?
Answer: 37.3%

Question: What about the viability, T/C [11] of the same molecule?
Answer: 41.6%

Question: And the viability, T/C [12]?
Answer: 45%

Question: What about the viability, T/C (second compound 1 µM, first compound 0.00316 µM) of the same molecule?
Answer: 33.6%

Question: What about the viability, T/C (second compound 1 µM, first compound 0.01 µM) of the same molecule?
Answer: 35.6%

Question: And the viability, T/C [13]?
Answer: 25.3%

Question: And the viability, T/C [14]?
Answer: 32.3%

Question: And the viability, T/C [15]?
Answer: 35.9%

Question: What about the viability, T/C [16] of the same molecule?
Answer: 36.7%

Question: Cn1nccc1Nc1nccc(-c2ccn(C(CO)c3ccc(Cl)c(F)c3)c(=O)c2)n1 (centres undefined) + CC(Nc1ncnc2nc[nH]c12)c1cc2cccc(Cl)c2c(=O)n1-c1ccccc1 was tested. Which IC50 (second compound 0.0316 µM) did it give?
Answer: 7.95 µM

Question: What about the IC50 (second compound 0.1 µM) of the same molecule?
Answer: 7.53 µM

Question: What about the IC50 (second compound 0.316 µM) of the same molecule?
Answer: 7.72 µM

Question: And the IC50 (second compound 1 µM)?
Answer: 6.96 µM

Question: What about the IC50 (second compound 3.16 µM) of the same molecule?
Answer: 5.22 µM

Question: And the IC50 (second compound 10 µM)?
Answer: 3.03 µM

Question: What about the viability, T/C [1] of the same molecule?
Answer: 105%

Question: And the viability, T/C [2]?
Answer: 103%

Question: And the viability, T/C [3]?
Answer: 98.9%

Question: What about the viability, T/C [4] of the same molecule?
Answer: 90.6%

Question: And the viability, T/C (second compound 0.0316 µM, first compound 3.16 µM)?
Answer: 65.7%

Question: What about the viability, T/C (second compound 0.0316 µM, first compound 10 µM) of the same molecule?
Answer: 46.1%

Question: And the viability, T/C [5]?
Answer: 111%

Question: What about the viability, T/C [6] of the same molecule?
Answer: 109%

Question: And the viability, T/C [7]?
Answer: 92.7%

Question: And the viability, T/C [8]?
Answer: 87.5%

Question: What about the viability, T/C (second compound 0.1 µM, first compound 3.16 µM) of the same molecule?
Answer: 64.6%

Question: What about the viability, T/C (second compound 0.1 µM, first compound 10 µM) of the same molecule?
Answer: 45%

Question: And the viability, T/C [9]?
Answer: 107%

Question: And the viability, T/C [10]?
Answer: 113%

Question: What about the viability, T/C [11] of the same molecule?
Answer: 100%

Question: What about the viability, T/C [12] of the same molecule?
Answer: 78.1%

Question: What about the viability, T/C (second compound 0.316 µM, first compound 3.16 µM) of the same molecule?
Answer: 76.4%

Question: And the viability, T/C (second compound 0.316 µM, first compound 10 µM)?
Answer: 42.7%

Question: And the viability, T/C [13]?
Answer: 114%

Question: And the viability, T/C [14]?
Answer: 109%

Question: What about the viability, T/C [15] of the same molecule?
Answer: 92.6%

Question: What about the viability, T/C [16] of the same molecule?
Answer: 86.2%

Question: What about the viability, T/C (second compound 1 µM, first compound 3.16 µM) of the same molecule?
Answer: 70.3%

Question: And the viability, T/C (second compound 1 µM, first compound 10 µM)?
Answer: 40.4%

Question: What about the viability, T/C (second compound 3.16 µM, first compound 0.0316 µM) of the same molecule?
Answer: 109%

Question: What about the viability, T/C (second compound 3.16 µM, first compound 0.1 µM) of the same molecule?
Answer: 94.3%

Question: And the viability, T/C (second compound 3.16 µM, first compound 0.316 µM)?
Answer: 87.5%

Question: What about the viability, T/C (second compound 3.16 µM, first compound 1 µM) of the same molecule?
Answer: 78%

Question: What about the viability, T/C (second compound 3.16 µM, first compound 3.16 µM) of the same molecule?
Answer: 63.3%

Question: What about the viability, T/C (second compound 3.16 µM, first compound 10 µM) of the same molecule?
Answer: 35.1%

Question: And the viability, T/C (second compound 10 µM, first compound 0.0316 µM)?
Answer: 88.2%

Question: What about the viability, T/C (second compound 10 µM, first compound 0.1 µM) of the same molecule?
Answer: 86.3%

Question: What about the viability, T/C (second compound 10 µM, first compound 0.316 µM) of the same molecule?
Answer: 79.6%

Question: And the viability, T/C (second compound 10 µM, first compound 1 µM)?
Answer: 77.4%

Question: And the viability, T/C (second compound 10 µM, first compound 3.16 µM)?
Answer: 48.4%

Question: And the viability, T/C (second compound 10 µM, first compound 10 µM)?
Answer: 27.4%
